{
  "source": "paper PMC9699427",
  "about": "(Viruses, 2022)",
  "key": {"[1]": {"experiment": "Acute toxicity, single intragastric dose", "type": "in vivo", "settings": "male and female BALB/C mice"}, "[2]": {"experiment": "Pharmacokinetics after iv and oral dosing", "type": "in vivo, BALB/c mice", "settings": "for half-life: read-out: t1/2z (converted)"}, "HIV-1IIIB": {"tested_on": "HIV-1IIIB", "experiment": "Anti-HIV-1 activity, syncytia (CPE) count in C8166 cells", "type": "cell-based", "settings": "Human immunodeficiency virus 1"}, "[3]": {"settings": "mouse, plasma, iv 2 mg/kg, female BALB/c mice"}, "[4]": {"settings": "mouse, plasma, iv 2 mg/kg, male BALB/c mice"}, "[5]": {"settings": "mouse, plasma, po 30 mg/kg, female BALB/c mice"}, "[6]": {"settings": "mouse, plasma, po 30 mg/kg, male BALB/c mice"}, "[7]": {"settings": "mouse, plasma, po 60 mg/kg, female BALB/c mice"}, "[8]": {"settings": "mouse, plasma, po 60 mg/kg, male BALB/c mice"}, "[9]": {"settings": "mouse, plasma, po 120 mg/kg, female BALB/c mice"}, "[10]": {"settings": "mouse, plasma, po 120 mg/kg, male BALB/c mice"}, "[11]": {"settings": "po 30 mg/kg, female BALB/c mice"}, "[12]": {"settings": "po 60 mg/kg, female BALB/c mice"}, "[13]": {"settings": "po 120 mg/kg, female BALB/c mice"}},
  "note": "Like-named read-outs stand apart in the source and are kept apart here.",
  "data": [
    {"smiles": "Cc1cc(C#N)cc(C)c1Oc1nc(NC2CCN(Cc3ccc(S(N)(=O)=O)cc3)CC2)nc2ccsc12", "note": "[K-5a2]", "values": [
      {"measurement": "MTD", "setting": "[1]; both, mouse, in vivo, po, 5000 mg/kg, single gavage dose, read-out: Maximum tolerated dose", "result": "> 5000", "unit": "mg/kg"},
      {"measurement": "Clinical symptoms and body weight", "setting": "[1]; single gavage dose of 5000 mg/kg", "result": "no obvious clinical symptoms and no obvious abnormalities in body weight"},
      {"measurement": "bioavailability", "setting": "[2]; BALB/c, mouse, plasma, female mice, oral doses, read-out: Oral bioavailability", "result": "8.5 ± 2.7", "unit": "%"},
      {"measurement": "bioavailability", "setting": "[2]; BALB/c, mouse, plasma, male mice, oral doses, read-out: Oral bioavailability", "result": "6.8 ± 1.3", "unit": "%"},
      {"measurement": "Tmax", "setting": "[2]; both, mouse, plasma, single oral administration at 30, 60, or 120 mg/kg, BALB/c mice, read-out: Time to peak plasma concentration", "result": "15 to 30", "unit": "min"},
      {"measurement": "Cmax", "setting": "[2]; female, BALB/c, mouse, plasma, iv, 2 mg/kg, iv 2 mg/kg, female BALB/c mice, read-out: Cmax", "result": 1100, "unit": "ng/mL"},
      {"measurement": "Cmax", "setting": "[2]; female, BALB/c, mouse, plasma, po, 30 mg/kg, po 30 mg/kg, female BALB/c mice, read-out: Cmax", "result": 416, "unit": "ng/mL"},
      {"measurement": "Cmax", "setting": "[2]; female, BALB/c, mouse, plasma, po, 60 mg/kg, po 60 mg/kg, female BALB/c mice, read-out: Cmax", "result": 1100, "unit": "ng/mL"},
      {"measurement": "Cmax", "setting": "[2]; female, BALB/c, mouse, plasma, po, 120 mg/kg, po 120 mg/kg, female BALB/c mice, read-out: Cmax", "result": 1940, "unit": "ng/mL"},
      {"measurement": "Cmax", "setting": "[2]; iv 2 mg/kg, female BALB/c mice, 2 mg/kg", "result": 1098.3, "unit": "ng/mL"},
      {"measurement": "Cmax", "setting": "[2]; iv 2 mg/kg, male BALB/c mice, 2 mg/kg", "result": 1078.7, "unit": "ng/mL"},
      {"measurement": "Cmax", "setting": "[2]; male, BALB/c, mouse, plasma, iv, 2 mg/kg, iv 2 mg/kg, male BALB/c mice, read-out: Cmax", "result": 1080, "unit": "ng/mL"},
      {"measurement": "Cmax", "setting": "[2]; male, BALB/c, mouse, plasma, po, 30 mg/kg, po 30 mg/kg, male BALB/c mice, read-out: Cmax", "result": 345, "unit": "ng/mL"},
      {"measurement": "Cmax", "setting": "[2]; male, BALB/c, mouse, plasma, po, 60 mg/kg, po 60 mg/kg, male BALB/c mice, read-out: Cmax", "result": 749, "unit": "ng/mL"},
      {"measurement": "Cmax", "setting": "[2]; male, BALB/c, mouse, plasma, po, 120 mg/kg, po 120 mg/kg, male BALB/c mice, read-out: Cmax", "result": 1680, "unit": "ng/mL"},
      {"measurement": "AUC(0-t)", "setting": "[2]; [3]", "result": 461, "unit": "ng·h/mL"},
      {"measurement": "clearance", "setting": "[2]; [3]", "result": 69.2, "unit": "mL/min/kg"},
      {"measurement": "Tmax", "setting": "[2]; mouse, plasma, iv 2 mg/kg, female BALB/c mice, read-out: Tmax", "result": 1.98, "unit": "min"},
      {"measurement": "Vd", "setting": "[2]; mouse, plasma, iv 2 mg/kg, female BALB/c mice, read-out: Vd", "result": 14.1, "unit": "L/kg"},
      {"measurement": "half-life", "setting": "[2]; [3]", "result": 141, "unit": "min"},
      {"measurement": "AUC(0-t)", "setting": "[2]; [4]", "result": 454, "unit": "ng·h/mL"},
      {"measurement": "clearance", "setting": "[2]; [4]", "result": 70.5, "unit": "mL/min/kg"},
      {"measurement": "Tmax", "setting": "[2]; mouse, plasma, iv 2 mg/kg, male BALB/c mice, read-out: Tmax", "result": 1.98, "unit": "min"},
      {"measurement": "Vd", "setting": "[2]; mouse, plasma, iv 2 mg/kg, male BALB/c mice, read-out: Vd", "result": 13.3, "unit": "L/kg"},
      {"measurement": "half-life", "setting": "[2]; [4]", "result": 131, "unit": "min"},
      {"measurement": "AUC(0-t)", "setting": "[2]; [5]", "result": 488, "unit": "ng·h/mL"},
      {"measurement": "bioavailability", "setting": "[2]; mouse, plasma, po 30 mg/kg, female BALB/c mice, read-out: F", "result": 7.05, "unit": "%"},
      {"measurement": "Tmax", "setting": "[2]; mouse, plasma, po 30 mg/kg, female BALB/c mice, read-out: Tmax", "result": 15, "unit": "min"},
      {"measurement": "half-life", "setting": "[2]; [5]", "result": 65.4, "unit": "min"},
      {"measurement": "AUC(0-t)", "setting": "[2]; [6]", "result": 482, "unit": "ng·h/mL"},
      {"measurement": "bioavailability", "setting": "[2]; mouse, plasma, po 30 mg/kg, male BALB/c mice, read-out: F", "result": 7.08, "unit": "%"},
      {"measurement": "Tmax", "setting": "[2]; mouse, plasma, po 30 mg/kg, male BALB/c mice, read-out: Tmax", "result": 30, "unit": "min"},
      {"measurement": "half-life", "setting": "[2]; [6]", "result": 62.4, "unit": "min"},
      {"measurement": "AUC(0-t)", "setting": "[2]; [7]", "result": 1420, "unit": "ng·h/mL"},
      {"measurement": "bioavailability", "setting": "[2]; mouse, plasma, po 60 mg/kg, female BALB/c mice, read-out: F", "result": 10.2, "unit": "%"},
      {"measurement": "Tmax", "setting": "[2]; mouse, plasma, po 60 mg/kg, female BALB/c mice, read-out: Tmax", "result": 15, "unit": "min"},
      {"measurement": "half-life", "setting": "[2]; [7]", "result": 71.4, "unit": "min"},
      {"measurement": "AUC(0-t)", "setting": "[2]; [8]", "result": 968, "unit": "ng·h/mL"},
      {"measurement": "bioavailability", "setting": "[2]; mouse, plasma, po 60 mg/kg, male BALB/c mice, read-out: F", "result": 7.1, "unit": "%"},
      {"measurement": "Tmax", "setting": "[2]; mouse, plasma, po 60 mg/kg, male BALB/c mice, read-out: Tmax", "result": 30, "unit": "min"},
      {"measurement": "half-life", "setting": "[2]; [8]", "result": 85.2, "unit": "min"},
      {"measurement": "AUC(0-t)", "setting": "[2]; [9]", "result": 3580, "unit": "ng·h/mL"},
      {"measurement": "bioavailability", "setting": "[2]; mouse, plasma, po 120 mg/kg, female BALB/c mice, read-out: F", "result": 12.9, "unit": "%"},
      {"measurement": "Tmax", "setting": "[2]; mouse, plasma, po 120 mg/kg, female BALB/c mice, read-out: Tmax", "result": 30, "unit": "min"},
      {"measurement": "half-life", "setting": "[2]; [9]", "result": 49.2, "unit": "min"},
      {"measurement": "AUC(0-t)", "setting": "[2]; [10]", "result": 2460, "unit": "ng·h/mL"},
      {"measurement": "bioavailability", "setting": "[2]; mouse, plasma, po 120 mg/kg, male BALB/c mice, read-out: F", "result": 9.05, "unit": "%"},
      {"measurement": "Tmax", "setting": "[2]; mouse, plasma, po 120 mg/kg, male BALB/c mice, read-out: Tmax", "result": 30, "unit": "min"},
      {"measurement": "half-life", "setting": "[2]; [10]", "result": 105, "unit": "min"},
      {"measurement": "CL", "setting": "[2]; [11]", "result": 1007, "unit": "mL/min/kg"},
      {"measurement": "Vd", "setting": "[2]; [11]", "result": 95.0, "unit": "L/kg"},
      {"measurement": "CL", "setting": "[2]; po 30 mg/kg, male BALB/c mice", "result": 1016, "unit": "mL/min/kg"},
      {"measurement": "Vd", "setting": "[2]; po 30 mg/kg, male BALB/c mice", "result": 91.4, "unit": "L/kg"},
      {"measurement": "CL", "setting": "[2]; [12]", "result": 697.5, "unit": "mL/min/kg"},
      {"measurement": "Vd", "setting": "[2]; [12]", "result": 71.9, "unit": "L/kg"},
      {"measurement": "CL", "setting": "[2]; po 60 mg/kg, male BALB/c mice", "result": 1021, "unit": "mL/min/kg"},
      {"measurement": "Vd", "setting": "[2]; po 60 mg/kg, male BALB/c mice", "result": 125.1, "unit": "L/kg"},
      {"measurement": "CL", "setting": "[2]; [13]", "result": 557.2, "unit": "mL/min/kg"},
      {"measurement": "Vd", "setting": "[2]; [13]", "result": 39.7, "unit": "L/kg"},
      {"measurement": "CL", "setting": "[2]; po 120 mg/kg, male BALB/c mice", "result": 791.3, "unit": "mL/min/kg"},
      {"measurement": "Vd", "setting": "[2]; po 120 mg/kg, male BALB/c mice", "result": 120.2, "unit": "L/kg"},
      {"measurement": "EC50", "setting": "HIV-1IIIB", "result": "1.88 ± 0.87", "unit": "nM"}
    ]}
  ]
}
